Columns and labels:
[1] = biological target: T1, uric acid-xanthine/H+ symporter (UapA) (Emericella nidulans, UniProt Q07307, G411V); experiment: Thermal/structural stability of UapA by CPM fluorescence assay; type: biochemical, Aspergillus nidulans; details: for ability to conserve UapA transporter in a folded state: 125 minutes at 40° C.
T1 construct: GFP; made in house; host or cells: Saccharomyces cerevisiae FGY217
Experimental: An experiment of measuring structural stability of a uric acid-xanthine/H+ symporter (UapA) separated from Aspergillus nidulans by TMG was performed. The structural stability of UapA was evaluated using a sulfhydryl-specific fluorophore and N-[4-(7-diethylamino-4-methyl-3-coumarinyl)phenyl]maleimide (CPM).
Specifically, UapAG411V1-11 (hereinafter, referred to as “UapA”) expressed as a GFP fusion protein from a Saccharomyces cerevisiae FGY217 strain, and the protein was separated using a sample buffer (20 mM Tris (pH 7.5), 150 mM NaCl, 0.03% DDM, 0.6 mM xanthine) according to a method disclosed in the article written by J. Leung et al. (Mol. Membr. Biol. 2013, 30, 32-42). The protein having a molecular weight of 100 kDa was concentrated to approximately 10 mg/mL using a cut-off filter (Millipore). The protein was diluted with a buffer containing each of the TMG-As (TMG-A11, TMG-A12, TMG-A13 and TMG-A14), TMG-Ts (TMG-T11, TMG-T12, TMG-T13 and TMG-T14), MNG-3 or DDM at a ratio of 1:150 to reach the final concentration of CMC+0.04 wt % or CMC+0.2 wt % in a Greiner 96-well plate. A CPM dye (Invitrogen) stored in DMSO (Sigma) was diluted with a staining buffer (20 mM Tris (pH 7.5), 150 mM NaCl, 0.03% DDM, 5 mM EDTA), and 3 μL of the staining buffer was added to each sample. The reaction mixture was incubated at a constant temperature for 125 minutes at 40° C. Fluorescence emission was recorded using a microplate spectrofluorometer set to each of excitation and emission wavelengths of 387 nm and 463 nm. A relative amount of folded proteins was plotted over time using GraphPad Prism.

[2] = Critical micelle concentration by fluorescent staining with diphenylhexatriene (DPH); type: physicochemical; details: aqueous solution
Experimental: A method of measuring CMC is not particularly limited, and any method well known in the art, for example, a fluorescent staining method using diphenylhexatriene (DPH) may be used.
(§1) Specifically, a CMC was measured using fluorescent staining and diphenylhexatriene (DPH), and the hydrodynamic radii (Rh) of micelles formed by each agent (1.0 wt %) were measured by a DLS test. The measured results were compared with those for the conventional amphipathic molecule (detergent), DDM, and thus are shown in Table 1.

[3] = Hydrodynamic radius of micelles by dynamic light scattering (DLS); type: physicochemical; details: for Rh (nm), hydrodynamic radius of micelles: micelles formed by each agent at 1.0 wt %; for micelle size and homogeneity in words: 1.0 wt %, FIGS. 5 and 6
Experimental: A method of measuring the radius of the micelles is not particularly limited, and any method well known in the art, for example, a DLS test may be used.
as §1

[4] = tested on: LeuT (leucine transporter); experiment: LeuT stability by [3H]-Leu substrate binding, scintillation proximity assay (SPA); type: biochemical, Aquifex aeolicus; details: for substrate-binding ability of LeuT: TMGs or DDM at CMC+0.04 wt %, 10 days at room temperature; for activity of LeuT after incubation, relative to DDM: CMC+0.04 wt %, after incubation at room temperature; for activity of LeuT after incubation, relative to DDM / activity of LeuT over time: FIG. 13a; for activity of LeuT over time: TMMs or DDM at CMC+0.04 wt %, incubation at room temperature
Experimental: An experiment of measuring LeuT protein stability for TMGs and TMMs was performed. (a) CMC+0.04 wt % or (b) CMC+0.2 wt % of each amphipathic molecule was used, and the evaluation of the LeuT protein stability was performed by taking an advantage of a characteristic of LeuT binding to a substrate through a scintillation proximity assay (SPA) using [^3H]-Leu. […]
Specifically, wild type LeuT (leucine transporter) derived from a thermophilic bacterium, Aquifex aeolicus, was purified by a previously-disclosed method (G. Deckert et al., Nature 1998, 392, 353-358). LeuT was expressed in E. coli C41 (DE3) transformed with pET16b encoding a C-terminus 8×His-tagged transporter (the expression plasmid was provided by Dr E. Gouaux, Vollum Institute, Portland, Oreg., USA). In summary, following isolation of a bacterial membrane and lysis with 1% (w/v) DDM, the protein was allowed to bind to a Ni^2+-NTA resin (Life Technologies, Denmark), and eluted in 20 mM Tris-HCl (pH 8.0), 1 mM NaCl, 199 mM KCl, 0.05% (w/v) DDM and 300 mM imidazole. Afterward, the purified LeuT (approximately 1.5 mg/ml) was diluted with the same buffer used above, from which DDM and imidazole were removed, and then supplemented with TMGs or DDM at the final concentration of CMC+0.04% (w/v). […] SPA was performed using a buffer containing 450 mM NaCl and each of the TMGs and TMMs at the predetermined concentration. The SPA reaction is performed in the presence of 20 nM [^3H]-Leucine and 1.25 mg/ml copper chelate (His-Tag) YSi beads (Perkin Elmer, Denmark). A total [^3H]-Leucine binding degree of each sample was measured using a MicroBeta liquid scintillation counter (Perkin Elmer).

T1 sequence (Q07307 12-574 G411V): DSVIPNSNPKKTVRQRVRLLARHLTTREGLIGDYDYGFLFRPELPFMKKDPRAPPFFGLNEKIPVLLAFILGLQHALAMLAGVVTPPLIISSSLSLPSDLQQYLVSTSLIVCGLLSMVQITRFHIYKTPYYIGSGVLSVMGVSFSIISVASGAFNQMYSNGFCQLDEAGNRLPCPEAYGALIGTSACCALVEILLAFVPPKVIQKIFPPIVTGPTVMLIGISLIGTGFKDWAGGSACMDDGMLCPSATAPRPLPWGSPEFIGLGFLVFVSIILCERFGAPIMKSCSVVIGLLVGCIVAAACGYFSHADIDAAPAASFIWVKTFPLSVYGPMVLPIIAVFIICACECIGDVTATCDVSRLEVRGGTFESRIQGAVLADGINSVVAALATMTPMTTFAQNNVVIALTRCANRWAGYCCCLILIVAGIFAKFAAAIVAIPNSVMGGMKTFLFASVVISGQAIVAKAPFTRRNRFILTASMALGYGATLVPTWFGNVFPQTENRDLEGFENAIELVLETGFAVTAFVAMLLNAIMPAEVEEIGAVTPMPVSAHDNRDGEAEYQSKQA

CCCCCCCCCCC(CCCCCCCCCC)(CO[C@@H]1O[C@H](CO)[C@@H](O[C@H]2O[C@H](CO)[C@@H](O)[C@H](O)[C@H]2O)[C@H](O)[C@H]1O)CO[C@@H]1O[C@H](CO)[C@@H](O[C@H]2O[C@H](CO)[C@@H](O)[C@H](O)[C@H]2O)[C@H](O)[C@H]1O [MNG-3, reference compound]
ability to maintain the UapA transporter structure, comparison with MNG-3 and DDM ([1]; concentration not given): a little superior to DDM

CCCCCCCCCCCC(CCCC(CCCCCCCCCCC)(CO[C@@H]1OC(CO)[C@@H](O)C(O)C1O)CO[C@@H]1OC(CO)[C@@H](O)C(O)C1O)(CO[C@@H]1OC(CO)[C@@H](O)C(O)C1O)CO[C@@H]1OC(CO)[C@@H](O)C(O)C1O (stereo partly drawn) [TMG-A11]
CMC [2]: ~0.015 mM
CMC (wt %) [2]: ~0.0017 wt %
Rh (nm), hydrodynamic radius of micelles [3]: 3.1 ± 0.15 nm
ability to conserve UapA transporter in a folded state ([1]; CMC+0.04 wt %, FIG. 9): the least excellent in transporter stability
ability to conserve UapA transporter in a folded state ([1]; CMC+0.2 wt %, FIG. 10): the least effective, and had lower stability than DDM

CCCCCCCCCCCOCC(CO[C@@H]1OC(CO)[C@@H](O)C(O)C1O)(CO[C@@H]1OC(CO)[C@@H](O)C(O)C1O)CSCC(COCCCCCCCCCCC)(CO[C@@H]1OC(CO)[C@@H](O)C(O)C1O)CO[C@@H]1OC(CO)[C@@H](O)C(O)C1O (stereo partly drawn) [TMG-T11]
CMC [2]: ~0.020 mM
CMC (wt %) [2]: ~0.0025 wt %
Rh (nm), hydrodynamic radius of micelles [3]: 3.0 ± 0.07 nm
ability to conserve UapA transporter in a folded state ([1]; CMC+0.2 wt %, FIG. 10): the least effective, and had lower stability than DDM
substrate-binding ability of LeuT [4]: a better characteristic than DDM

CCCCCCCCCCCCOCC(CO[C@@H]1OC(CO)[C@@H](O)C(O)C1O)(CO[C@@H]1OC(CO)[C@@H](O)C(O)C1O)CSCC(COCCCCCCCCCCCC)(CO[C@@H]1OC(CO)[C@@H](O)C(O)C1O)CO[C@@H]1OC(CO)[C@@H](O)C(O)C1O (stereo partly drawn) [TMG-T12]
CMC [2]: ~0.015 mM
CMC (wt %) [2]: ~0.0019 wt %
Rh (nm), hydrodynamic radius of micelles [3]: 3.1 ± 0.06 nm
substrate-binding ability of LeuT [4]: a better characteristic than DDM

CC(C)CCC[C@@H](C)C1CCC2C3CCC4CC(OCC(CO[C@@H]5OC(CO)[C@@H](O[C@H]6OC(CO)[C@@H](O)C(O)C6O)C(O)C5O)(CO[C@@H]5OC(CO)[C@@H](O[C@H]6OC(CO)[C@@H](O)C(O)C6O)C(O)C5O)CSCC(COC5CCC6(C)C(CCC7C6CCC6(C)C7CCC6[C@H](C)CCCC(C)C)C5)(CO[C@@H]5OC(CO)[C@@H](O[C@H]6OC(CO)[C@@H](O)C(O)C6O)C(O)C5O)CO[C@@H]5OC(CO)[C@@H](O[C@H]6OC(CO)[C@@H](O)C(O)C6O)C(O)C5O)CCC4(C)C3CCC21C (stereo partly drawn) [TMM-A27]
CMC [2]: ~0.006 mM
CMC (wt %) [2]: ~0.00014 wt %
micelle size and homogeneity in words [3]: large
Rh (nm), hydrodynamic radius of micelles [3]: 4.1 ± 0.10 nm
activity of LeuT after incubation, relative to DDM [4]: protein activity similar to DDM

CCCCCCCCCCC(CCCCCCCCCC)COCC(CO[C@@H]1OC(CO)[C@@H](O[C@H]2OC(CO)[C@@H](O)C(O)C2O)C(O)C1O)(CO[C@@H]1OC(CO)[C@@H](O[C@H]2OC(CO)[C@@H](O)C(O)C2O)C(O)C1O)CSCC(COCC(CCCCCCCCCC)CCCCCCCCCC)(CO[C@@H]1OC(CO)[C@@H](O[C@H]2OC(CO)[C@@H](O)C(O)C2O)C(O)C1O)CO[C@@H]1OC(CO)[C@@H](O[C@H]2OC(CO)[C@@H](O)C(O)C2O)C(O)C1O (stereo partly drawn) [TMM-C22]
CMC [2]: ~0.002 mM
CMC (wt %) [2]: ~0.00044 wt %
Rh (nm), hydrodynamic radius of micelles [3]: 3.6 ± 0.09 nm
activity of LeuT after incubation, relative to DDM [4]: two-fold higher than that of the protein dissolved in DDM
activity of LeuT over time [4]: slightly increased over time

CCCCCCCCCCCC(CCCCCCCCCCC)COCC(CO[C@@H]1OC(CO)[C@@H](O[C@H]2OC(CO)[C@@H](O)C(O)C2O)C(O)C1O)(CO[C@@H]1OC(CO)[C@@H](O[C@H]2OC(CO)[C@@H](O)C(O)C2O)C(O)C1O)CSCC(COCC(CCCCCCCCCCC)CCCCCCCCCCC)(CO[C@@H]1OC(CO)[C@@H](O[C@H]2OC(CO)[C@@H](O)C(O)C2O)C(O)C1O)CO[C@@H]1OC(CO)[C@@H](O[C@H]2OC(CO)[C@@H](O)C(O)C2O)C(O)C1O (stereo partly drawn) [TMM-C24]
CMC [2]: ~0.0015 mM
CMC (wt %) [2]: ~0.00034 wt %
Rh (nm), hydrodynamic radius of micelles [3]: 3.9 ± 0.08 nm
overall LeuT stabilisation characteristic among TMMs ([4]; CMC+0.04 wt % and CMC+0.2 wt %, FIGS. 13a and 13b): the most excellent characteristic and was superior to DDM
activity of LeuT after incubation, relative to DDM [4]: two-fold higher than that of the protein dissolved in DDM
activity of LeuT over time [4]: slightly increased over time

CCCCCCCCCCCCC(CCCCCCCCCCCC)COCC(CO[C@@H]1OC(CO)[C@@H](O[C@H]2OC(CO)[C@@H](O)C(O)C2O)C(O)C1O)(CO[C@@H]1OC(CO)[C@@H](O[C@H]2OC(CO)[C@@H](O)C(O)C2O)C(O)C1O)CSCC(COCC(CCCCCCCCCCCC)CCCCCCCCCCCC)(CO[C@@H]1OC(CO)[C@@H](O[C@H]2OC(CO)[C@@H](O)C(O)C2O)C(O)C1O)CO[C@@H]1OC(CO)[C@@H](O[C@H]2OC(CO)[C@@H](O)C(O)C2O)C(O)C1O (stereo partly drawn) [TMM-C26]
CMC [2]: ~0.0015 mM
CMC (wt %) [2]: ~0.00034 wt %
Rh (nm), hydrodynamic radius of micelles [3]: 4.3 ± 0.07 nm
activity of LeuT after incubation, relative to DDM [4]: protein activity similar to DDM

CC1CCC2(OC1)OC1CC3C4CC=C5CC(OCC(CO[C@@H]6OC(CO)[C@@H](O[C@H]7OC(CO)[C@@H](O)C(O)C7O)C(O)C6O)(CO[C@@H]6OC(CO)[C@@H](O[C@H]7OC(CO)[C@@H](O)C(O)C7O)C(O)C6O)CSCC(COC6CCC7(C)C(=CCC8C7CCC7(C)C8CC8OC9(CCC(C)CO9)C(C)C87)C6)(CO[C@@H]6OC(CO)[C@@H](O[C@H]7OC(CO)[C@@H](O)C(O)C7O)C(O)C6O)CO[C@@H]6OC(CO)[C@@H](O[C@H]7OC(CO)[C@@H](O)C(O)C7O)C(O)C6O)CCC5(C)C4CCC3(C)C1C2C (stereo partly drawn) [TMM-D27]
CMC [2]: ~0.010 mM
CMC (wt %) [2]: ~0.0024 wt %
micelle size and homogeneity in words [3]: relatively small micelles
Rh (nm), hydrodynamic radius of micelles [3]: 3.1 ± 0.07 nm
activity of LeuT after incubation, relative to DDM [4]: protein activity similar to DDM

CC(C)CCC[C@@H](C)C1CCC2C3CC=C4CC(OCC(CO[C@@H]5OC(CO)[C@@H](O[C@H]6OC(CO)[C@@H](O)C(O)C6O)C(O)C5O)(CO[C@@H]5OC(CO)[C@@H](O[C@H]6OC(CO)[C@@H](O)C(O)C6O)C(O)C5O)CSCC(COC5CCC6(C)C(=CCC7C6CCC6(C)C7CCC6[C@H](C)CCCC(C)C)C5)(CO[C@@H]5OC(CO)[C@@H](O[C@H]6OC(CO)[C@@H](O)C(O)C6O)C(O)C5O)CO[C@@H]5OC(CO)[C@@H](O[C@H]6OC(CO)[C@@H](O)C(O)C6O)C(O)C5O)CCC4(C)C3CCC21C (stereo partly drawn) [TMM-E27]
CMC [2]: ~0.008 mM
CMC (wt %) [2]: ~0.00018 wt %
micelle size and homogeneity in words [3]: large
Rh (nm), hydrodynamic radius of micelles [3]: 4.7 ± 0.10 nm
activity of LeuT after incubation, relative to DDM [4]: protein activity similar to DDM

Reference: patent US10808003B2, “Amphipathic molecule based on tandem malonate and use thereof” (Industry-University Cooperation Foundation Hanyang …, priority 2017, dated 2020)
